# Experimental data published in PMC5045383 (Oncotarget, 2016).
# Tests used:
# HL-60 (FLT3-wt) = experiment: Cell proliferation assay (CellTiter-Glo); assay type: cell-based, human; details: 72 hours
# Procedure: (§1) Cells were grown in 96-well culture plates (3000/well). […] Cell proliferation was determined after 72 hours drug treatment. […] Cell viability was measured with the CellTiter–Glo assay (Promega, USA), according to the manufacturer's instructions, and luminescence was measured in a multi-label reader (Envision, PerkinElmer, USA). […] GI50 values were calculated using Prism 5.0 (GraphPad Software, San Diego, CA).
# SKM-1 (FLT3-wt) = experiment: Cell proliferation assay (CellTiter-Glo); assay type: cell-based, human; details: 72 hours
# Procedure: as §1
# PF-382 (FLT3-wt) = experiment: cells; assay type: cell-based; details: 72 hours
# Procedure: as §1
# BaF3-FLT3-D835Y = experiment: Anti-proliferation, BaF3 isogenic cell lines; assay type: cell-based
# Procedure: (§2) Cells were grown in 96-well culture plates (3000/well). […] Cell proliferation was determined after 72 hours drug treatment. […] Cell viability was measured with the CellTiter–Glo assay (Promega, USA), according to the manufacturer's instructions, and luminescence was measured in a multi-label reader (Envision, PerkinElmer, USA). Data were normalized to control groups (DMSO) and represented by the mean of three independent measurements with standard error < 20%. GI50 values were calculated using Prism 5.0 (GraphPad Software, San Diego, CA).
# (§3) Retroviral constructs for BaF3-FLT3 mutants were made based on the pMSCVpuro (Clontech) backbone. For TEL-FLT3 vector, the first 1 kb of human TEL gene with an artificial myristoylation sequence ([…]) was cloned into pMSCVpuro retroviral vector, followed by a 3xFLAG tag sequence and a stop codon. Then the kinase domain coding sequence of FLT3 was inserted in-frame between TEL and 3× FLAG sequences. For full-length expression vectors, the coding sequences of FLT3 variants were directly cloned in pMSCVpuro vector with a 3X FLAG tag at the C-terminal end. All mutagenesis studies were performed using the QuikChange Site-Directed Mutagenesis Kit (Stratagene) following the manufacturer's instructions. Retrovirus was packaged in HEK293T cells by transfecting FLT3-containing MSCV vectors together with two helper plasmids, virus supernatants were harvested 48 hours after transfection and filtered before infection. Then BaF3 cells were infected with harvested virus supernatants using spinoculation protocol and stable cell lines were obtained by puromycin selection for 48 hours. The IL-3 concentrations in the culture medium were gradually withdrawn until cells were able to grow in the absence of IL-3.
# BaF3-FLT3-ITD-D835Y = experiment: Anti-proliferation, BaF3 isogenic cell lines; assay type: cell-based
# Procedure: as §2, §3
# BaF3-FLT3-ITD-F691L = experiment: Anti-proliferation, BaF3 isogenic cell lines; assay type: cell-based
# Procedure: as §2, §3
# BaF3-FLT3-ITD = experiment: Anti-proliferation, BaF3 isogenic cell lines; assay type: cell-based
# Procedure: as §2, §3
# BaF3-TEL-FLT3-wt = experiment: Anti-proliferation, BaF3 isogenic cell lines; assay type: cell-based
# Procedure: as §2, §3
# MOLM14 = experiment: Cell cycle analysis (PI, flow cytometry); assay type: cell-based, human; details: 24 hours
# Procedure: (§4) The cells were fixed in 70% cold ethanol and incubated at −20°C overnight, then stained with PI/RNase staining buffer (BD Pharmingen). Flow cytometry was performed using a FACS Calibur (BD), and results were analyzed by ModFit software.
# MV4-11 = experiment: Cell cycle analysis (PI, flow cytometry); assay type: cell-based, human; details: 24 hours
# Procedure: as §4
# MOLM-14 xenograft tumor = MOLM-14 xenograft tumor model; assay type: in vivo, Balb/c-nu mice; details: daily oral gavage, MOLM14 xenograft
# Excerpt: Five weeks old female Balb/c-nu mice were purchased from the Shanghai Experimental Center, Chinese Science Academy (Shanghai, China). All animals were housed in a specific pathogen-free facility and used according to the animal care regulations of Hefei Institutes of Physical Science Chinese Academy of Sciences. Prior to implantation, cells were harvested during exponential growth. 10 million MOLM-14 cells in 1640 were formulated as a 1:1 mixture with Matrigel (BD Biosciences) and injected into the subcutaneous space on the right flank of Balb/c-nu mice. Daily oral administration was initiated when MOLM-14 tumors had reached a size of 200 to 400 mm^3. Animals were then randomized into treatment groups of 10 mice each for efficacy studies. […] Tumor growth was measured daily after A674563 treatment. Tumor volumes were calculated as follows: tumor volume (mm^3) = [(W^2 × L)/2] in which width (W) is defined as the smaller of the two measurements and length (L) is defined as the larger of the two measurements.
# [1] = test system: FLT3-ITD mediated signaling in MOLM14 and MV4-11 cell lines; experiment: Signaling pathway effect examination (immunoblot); assay type: cell-based, human; details: intact FLT3-ITD-positive cell lines, 4 hours
# Excerpt: Cells were then washed in PBS and lysed in cell lysis buffer. FLT3, Phospho-FLT3 (Tyr589/591), AKT, Phospho-AKT Ser473, Phospho-AKT Thr308, GSK-3β, Phospho-GSK-3β (Ser9), Phospho-FoxO1 (Thr24), FoxO1, PRAS40, Phospho-PRAS40 (Thr246), STAT5, Phospho-STAT5 (Tyr694), NF-ΚB-P65, Phospho-NF-ΚB-P65 (Ser536), P70S6K, Phospho-P70S6K Thr389, 4EBP1, Phospho-4EBP1 (Thr37/46), ERK, Phospho-p44/42MAPK (Erk1/2) (Thr202/Tyr204), C-Myc and GAPDH antibodies (Cell Signaling Technology) were used for immunoblotting.
# FLT3-ITD = experiment: Kinase kinetic assay (ADP-Glo, varied ATP); assay type: biochemical; details: range of ATP concentrations
# Procedure: Kinetic analyses of FLT3-ITD were performed using a luminometric kinase assay varying the concentration of ATP using the ADP-Glo reagents (Promega). […] After 60 min incubation at RT, various concentrations of ATP, 0.2 μg/μL FLT3 substrate Poly (4:1 Glu, Tyr) peptide added and incubated for 60 min at 37°C. The overall rate of reaction is determined as the slope of the decreasing phase of the reaction. Each data point was collected in duplicate and kinetic parameters were obtained using Prism 5.0 (GraphPad Software, San Diego, CA).
# FLT3 wt = target: FLT3 wt; design: method as in PMID 22037378; details: cited from earlier work
structure (smiles),measurement,setting,value
Cc1[nH]nc2ccc(-c3cncc(OC[C@@H](N)Cc4ccccc4)c3)cc12 [A674563],GI50,HL-60 (FLT3-wt),2600 nM
same,GI50,SKM-1 (FLT3-wt),2000 nM
same,GI50,PF-382 (FLT3-wt),2700 nM
same,GI50,BaF3-FLT3-D835Y,45 nM
same,GI50,BaF3-FLT3-ITD-D835Y,420 nM
same,GI50,BaF3-FLT3-ITD-F691L,430 nM
same,GI50,BaF3-FLT3-ITD,88 nM
same,GI50,BaF3-TEL-FLT3-wt,1000 nM
same,%G0–G1,"MOLM14; MOLM14, 0.3 μM",47.08%
same,%G2–M,"MOLM14; MOLM14, 0.3 μM",11.27%
same,%S,"MOLM14; MOLM14, 0.3 μM",41.65%
same,%G0–G1,"MOLM14; MOLM14, 3 μM",53.87%
same,%G2–M,"MOLM14; MOLM14, 3 μM",22.65%
same,%S,"MOLM14; MOLM14, 3 μM",23.49%
same,%G0–G1,"MV4-11; MV4-11, 0.3 μM",68.69%
same,%G2–M,"MV4-11; MV4-11, 0.3 μM",2.61%
same,%S,"MV4-11; MV4-11, 0.3 μM",28.7%
same,%G0–G1,"MV4-11; MV4-11, 3 μM",68.62%
same,%G2–M,"MV4-11; MV4-11, 3 μM",8.56%
same,%S,"MV4-11; MV4-11, 3 μM",22.82%
same,tumor growth inhibition (TGI),MOLM-14 xenograft tumor; 25 mg/kg/d,45%
same,tumor growth inhibition (TGI),MOLM-14 xenograft tumor; 50 mg/kg/day,78%
same,concentration from which auto-phosphorylation of FLT3-ITD at Y589/591 is affected,[1],≥ 5 µM
same,concentration from which phosphorylation of STAT5 and expression of c-MYC are inhibited,[1],≥ 0.5 µM
same,mode of inhibition (kinetics analysis),FLT3-ITD,ATP competitive inhibitor
same,Kd,FLT3 wt,540 nM
